Patent publication US10544472B2, “Multiplexing transcription factor reporter protein assay process and system” (Attagene, Inc., priority 2014, dated 2020)

How the values were obtained:
[1] = tested on: AhR response element; assay: Multiplexed Gluc-tag reporter assay, AhR response element; format: cell-based
Experimental: (§1) Two separate detection assays were conducted to check the profile of FCICC (6-Formylindolo [3, 2-b] carbazole Indolo [3,2-b] carbazole-6-carboxaldehyde-5, 11-dihydro, an AhR response element inducer, commercially available from Biomol, Plymouth Meeting, Pa.) and IL-1β and TNF-α (NF-κB response element inducer).
(§2) Purified Antibodies were diluted in DPBS with 5% glycerol at 5 μg/ml concentration. […] of diluted antibody solutions were dispensed onto wells of a […] 600 plate (Greiner Bio-One, Monroe, N.C.), and the plate was tapped gently to distribute the antibody solutions evenly on the bottom of the well. The plate was sealed tightly with a PCR sealing film. The antibody plate was stored at 4° C. for one week for antibodies to bind.
At the end of incubation, 200 μl of Blocking Reagent (Attagene, Research Triangle Park, N.C.) was added to the wells to block the unbounded surface, either for 1 hour at room temperature for quick use, or at 4° C. overnight. The plate was washed 4 times with DPBS (Invitrogen, Carlsbad, Calif.) by flicking the solution out into a waste container and then blotted dry briefly on layers of paper towel. […]
(§3) After the incubation, samples were removed by gently flicking and the plate was washed 4 times with DPBS as above. […] The reading was normalized against the minimal promoter driven reporter.

[2] = tested on: CRE; assay: Multiplexed Gluc-tag reporter assay, CRE; format: cell-based; conditions: twelve response elements/Gluc tags, four assays (FIG. 8)
Experimental: as §2
(§4) At the end of incubation, 200 μl of Blocking Reagent (Attagene, Research Triangle Park, N.C.) was added to the wells to block the unbounded surface, either for 1 hour at room temperature for quick use, or at 4° C. overnight. The plate was washed 4 times with DPBS (Invitrogen, Carlsbad, Calif.) by flicking the solution out into a waste container and then blotted dry briefly on layers of paper towel. Target samples were diluted in Binding Reagent (Attagene, Inc., Research Triangle Park, N.C.). After the washing, 100 μl of diluted testing samples were added to the well and incubated at RT for 1 hour with gentle rocking agitation.
as §3

[3] = Stability of coelenterazine substrate in assay reagents; format: physicochemical; conditions: over 70 minutes after dilution from methanol stock into assay reagents
Experimental: It is well known that coelenterazine is not stable in aqueous solutions. FIGS. 3C and 3D show the stability profiles of coelenterazine substrate in different assay reagents after being diluted from its methanol stock. A solution of Gluc enzyme was injected at different time points into substrates that were prepared at the same time. The overall signal strength decreased about ten times over 70 minutes and there was no significant difference among these buffers in the stability of the substrate. Once again, the Attagene reagent provided better sensitivity and stronger RLU output.

[4] = tested on: NF-κB response element; assay: Multiplexed Gluc-tag reporter assay, NF-κB response element; format: cell-based
Experimental: as §1, §2, §4, §3

[5] = seven antibodies on 96-well plate, two separate detection assays (FIGS. 7A, 7B)
[6] = twelve response elements/Gluc tags, four assays (FIG. 8)

| Compound | induction of NF-κB [4, 5] | induction of NF-κB [4, 6] | other results |
| --- | --- | --- | --- |
| O=Cc1c2[nH]c3ccccc3c2cc2c1[nH]c1ccccc12 [FCICC, 6-Formylindolo [3,2-b] carbazole Indolo [3,2-b] carbazole-6-carboxaldehyde-5, 11-dihydro] | – | – | induction of AhR [1, 5]: specific induction; induction of AhR [1, 6]: specific induction |
| C=C[C@@]1(C)CC(=O)[C@]2(O)[C@@]3(C)[C@@H](O)CCC(C)(C)[C@@H]3[C@H](O)[C@H](OC(C)=O)[C@@]2(C)O1 [FSK] | – | – | induction of CRE [2]: specific induction |
| Oc1ccc(Cc2nc3c(Cc4ccccc4)nc(-c4ccc(O)cc4)cn3c2O)cc1 [coelenterazine] | – | – | decrease of overall signal strength [3]: about ten |
| IL-1β: NF-κB response element inducer | specific induction | specific induction | – |
| TNF-α | specific induction | specific induction | – |
